Biological target: T1, Lyn (Homo sapiens, UniProt P07948)
T1 construct: endogenous Lyn in BL2 cells
Assay: western blot of P-Lyn (Y396) in anti-IgM stimulated BL2 cells, […] for […] h
Assay type: cell-based

T1 sequence (P07948 2-512): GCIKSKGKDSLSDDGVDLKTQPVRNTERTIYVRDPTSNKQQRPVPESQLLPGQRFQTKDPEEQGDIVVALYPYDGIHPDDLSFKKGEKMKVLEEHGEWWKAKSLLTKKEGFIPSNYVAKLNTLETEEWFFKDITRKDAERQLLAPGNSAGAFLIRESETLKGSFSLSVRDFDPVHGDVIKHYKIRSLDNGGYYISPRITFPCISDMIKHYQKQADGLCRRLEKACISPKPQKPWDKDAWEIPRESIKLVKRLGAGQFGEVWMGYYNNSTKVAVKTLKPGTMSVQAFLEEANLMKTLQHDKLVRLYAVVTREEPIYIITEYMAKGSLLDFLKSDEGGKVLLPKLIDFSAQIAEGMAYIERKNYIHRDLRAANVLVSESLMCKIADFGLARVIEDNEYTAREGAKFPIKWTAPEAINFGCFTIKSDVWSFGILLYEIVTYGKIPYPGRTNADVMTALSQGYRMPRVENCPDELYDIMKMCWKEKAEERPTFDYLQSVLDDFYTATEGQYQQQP

## Cc1nc(Nc2ncc(C(=O)Nc3c(C)cccc3Cl)s2)cc(N2CCN(CCO)CC2)n1 [dasatinib]
  western blot of P-Lyn (Y396) in anti-IgM stimulated BL2 cells, 0.1 or 1.0 μM for: Dasatinib and ibrutinib selectively inhibited their respective targets as measured using anti-P-Lyn, anti-P-SFKs, and anti-P-BTK antibodies

Source: article PMC7582192, “Targeting N-myristoylation for therapy of B-cell lymphomas” (Nature Communications, 2020)
